Experimental findings from patent publication US7741124B2, “Detection procedures for fibrinogen and/or fibrinogen derivatives” (priority 2003, dated 2010) are described below.

pIC50: −log10 of the molar value. Where two headings read alike, the source gives them in different places. Where only a bound is given, the exact number is not on record here.

Assay type in all cases: biochemical
The target of one assay is T1, fibrin (Homo sapiens, UniProt P02671+P02675+P02679).
T1 construct: The FIFTA imitates the physiological conversion of fibrinogen to fibrin; from tissue; host or cells: pooled citrated patient plasma (P-Pool), clotted in the well with thrombin reagent for 30 min
T1 sequence (P02671 36-629 limits assumed): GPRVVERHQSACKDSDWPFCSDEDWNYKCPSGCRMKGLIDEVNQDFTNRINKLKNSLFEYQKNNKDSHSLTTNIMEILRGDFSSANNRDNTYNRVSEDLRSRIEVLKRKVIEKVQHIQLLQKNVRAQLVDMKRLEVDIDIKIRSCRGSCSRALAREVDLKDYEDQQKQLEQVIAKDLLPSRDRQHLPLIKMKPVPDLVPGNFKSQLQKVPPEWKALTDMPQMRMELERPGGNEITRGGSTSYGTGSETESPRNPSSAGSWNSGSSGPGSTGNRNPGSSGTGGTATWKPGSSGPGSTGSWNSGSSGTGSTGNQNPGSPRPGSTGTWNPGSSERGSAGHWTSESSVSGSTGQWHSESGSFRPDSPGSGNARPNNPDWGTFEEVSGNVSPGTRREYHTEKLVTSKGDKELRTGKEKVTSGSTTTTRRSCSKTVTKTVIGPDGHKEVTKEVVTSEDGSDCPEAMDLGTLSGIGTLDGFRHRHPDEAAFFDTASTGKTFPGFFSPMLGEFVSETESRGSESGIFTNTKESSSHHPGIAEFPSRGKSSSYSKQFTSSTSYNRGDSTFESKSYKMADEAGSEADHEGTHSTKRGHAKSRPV
T1 sequence (P02675 45-491 limits assumed): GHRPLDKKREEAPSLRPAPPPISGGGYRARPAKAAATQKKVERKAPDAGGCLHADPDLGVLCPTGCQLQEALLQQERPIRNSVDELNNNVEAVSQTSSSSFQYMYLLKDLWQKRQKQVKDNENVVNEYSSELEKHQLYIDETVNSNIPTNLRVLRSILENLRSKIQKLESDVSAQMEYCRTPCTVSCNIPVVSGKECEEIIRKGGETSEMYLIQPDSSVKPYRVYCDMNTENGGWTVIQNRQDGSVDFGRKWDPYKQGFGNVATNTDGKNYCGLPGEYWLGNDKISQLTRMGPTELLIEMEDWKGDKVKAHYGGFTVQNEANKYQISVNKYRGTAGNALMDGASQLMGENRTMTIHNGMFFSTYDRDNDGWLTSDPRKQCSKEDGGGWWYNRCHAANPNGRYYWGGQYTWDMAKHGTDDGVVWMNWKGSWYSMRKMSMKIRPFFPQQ
T1 sequence (P02679 27-437 isoform P02679-2 limits assumed): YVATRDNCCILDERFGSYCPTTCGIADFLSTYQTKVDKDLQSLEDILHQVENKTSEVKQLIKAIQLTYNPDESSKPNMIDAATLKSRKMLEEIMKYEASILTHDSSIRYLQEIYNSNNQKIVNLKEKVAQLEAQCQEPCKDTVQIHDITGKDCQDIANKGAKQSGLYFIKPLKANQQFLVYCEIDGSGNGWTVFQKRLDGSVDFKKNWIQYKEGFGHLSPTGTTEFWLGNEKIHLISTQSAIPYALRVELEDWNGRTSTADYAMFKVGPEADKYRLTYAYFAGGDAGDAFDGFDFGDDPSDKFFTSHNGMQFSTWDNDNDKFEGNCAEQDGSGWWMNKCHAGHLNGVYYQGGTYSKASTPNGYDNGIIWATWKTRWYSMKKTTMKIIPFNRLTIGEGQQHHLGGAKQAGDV
As to the kind of experiment: Fibrin dissolution by arginine. As to the method:
50 μl P-Pool were incubated with 100 μl FIFTA-reagent.

Assay [1] relates to thrombin/fibrinogen interaction. Kind of assay: Inhibition of fibrin generation by arginine (FIFTA turbidity). The following applies: for pIC50: read-out: arginine conc. at halfmaximal turbidity increase. As to the method: The turbidity increase was calculated by subtracting the basal absorbance from the absorbance generated by thrombin (addition of 100 μl FIFTA-reagent without thrombin results into an approximate increase of absorbance of 100 mA compared to the absorbance of 50 μl sample). c) 50 μl P-Pool were incubated with 100 μl FIFTA-reagent.

The subject of a further assay is heparin. As to the kind of experiment: Neutralization of heparin in plasma by Polybrene in the FIFTA. As to the method:
P-Pool supplemented with 0-80 IU/ml heparin was analyzed in the FIFTA. The FIFTA-reagent contained 200 mIU/ml thrombin, 6% BSA-PBS and 0, 50, 100, 200, 400, 800, or 1600 μg/ml Polybrene® (PB, hexadimethrinebromide).
25 μl 0-75 mg/ml Polybrene® in aqua dest. were added to 50 μl P-Pool or to 50 μl P-Pool, that had been supplemented with 100 IU/ml heparin. Then 100 μl 200 miU/ml thrombin in 6% BSA-PBS, 400 μg/ml PB were added and the increase in absorbance at 405 nm was determined.
50 μl P-Pool with 0-80 IU/ml heparin were incubated with 100 μl FIFTA-reagent without thrombin, that contained 0, 400, 800, or 1600 μg/ml PB. The increase in absorbance at 405 nm was determined.

The next assay addresses T2, thrombin (Bos taurus, UniProt P00735).
T2 construct: 100 μl 200 mIU/ml thrombin in 6% BSA-PBS (without Polybrene®)
Kind of assay: Inhibitory time point 50% (ITP50) of 10 IU/ml heparin-thrombin interaction. As to conditions: 133 mIU/ml thrombin, RT. As to the method: 50 μl P-Pool were incubated with 100 μl 200 miU/ml thrombin in 6% BSA-PBS (without Polybrene®). At 0 min (prior to thrombin addition) and 0.5-11 min reaction time (at RT) 10 μl 160 IU/ml heparin in 6% BSA-PBS was added (final heparin conc. in plasma+thrombin reagent=10 IU/ml; this heparin conc. increased the absorbance by 20 mA; all test results were corrected by this heparin induced turbidity increase). The turbidity increase at 405 nm was determined immediately after each heparin addition step and as a function of incubation time.
To determine the heparin addition time point (at RT) that is needed to decrease the 5 min, 10 min, 15 min or 20 min turbidity increase by 50% (inhibitory time point 50%=ITP), 50 μl P-Pool were incubated with 100 μl 200 mIU/ml thrombin in 6% BSA-PBS (without Polybrene®). After 0 s (prior to thrombin addition) and 10-140 s (in 10 s intervals) 10 μl 160 IU/ml heparin in 6% BSA-PBS were added. The turbidity increase at 405 nm as a function of incubation time (3-20 min) was determined.

Assay [2] addresses T3, fibrinogen (Homo sapiens, UniProt P02671+P02675+P02679).
T3 construct: pooled patient plasma (P-Pool, n=32 single plasmas); from tissue; host or cells: pooled citrated patient plasma (P-Pool, Fbgen-Pool-Plasma)
T3 sequence (P02671 20-644 isoform P02671-2 limits assumed): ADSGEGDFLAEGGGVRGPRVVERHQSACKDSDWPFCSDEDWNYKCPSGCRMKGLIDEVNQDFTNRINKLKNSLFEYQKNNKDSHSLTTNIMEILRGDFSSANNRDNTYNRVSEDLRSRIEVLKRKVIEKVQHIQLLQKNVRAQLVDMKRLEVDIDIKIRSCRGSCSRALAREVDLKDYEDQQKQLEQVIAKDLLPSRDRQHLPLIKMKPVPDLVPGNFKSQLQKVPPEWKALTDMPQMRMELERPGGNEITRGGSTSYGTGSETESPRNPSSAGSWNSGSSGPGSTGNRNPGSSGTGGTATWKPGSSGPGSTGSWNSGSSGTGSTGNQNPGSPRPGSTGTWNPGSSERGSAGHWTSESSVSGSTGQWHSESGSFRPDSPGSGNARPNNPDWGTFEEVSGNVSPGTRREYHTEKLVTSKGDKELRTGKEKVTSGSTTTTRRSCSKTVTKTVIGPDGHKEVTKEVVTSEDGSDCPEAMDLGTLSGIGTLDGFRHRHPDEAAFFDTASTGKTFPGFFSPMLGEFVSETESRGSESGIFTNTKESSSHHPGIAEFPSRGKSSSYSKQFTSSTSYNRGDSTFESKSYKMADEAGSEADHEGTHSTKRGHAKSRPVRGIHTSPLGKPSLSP
T3 sequence (P02675 31-491): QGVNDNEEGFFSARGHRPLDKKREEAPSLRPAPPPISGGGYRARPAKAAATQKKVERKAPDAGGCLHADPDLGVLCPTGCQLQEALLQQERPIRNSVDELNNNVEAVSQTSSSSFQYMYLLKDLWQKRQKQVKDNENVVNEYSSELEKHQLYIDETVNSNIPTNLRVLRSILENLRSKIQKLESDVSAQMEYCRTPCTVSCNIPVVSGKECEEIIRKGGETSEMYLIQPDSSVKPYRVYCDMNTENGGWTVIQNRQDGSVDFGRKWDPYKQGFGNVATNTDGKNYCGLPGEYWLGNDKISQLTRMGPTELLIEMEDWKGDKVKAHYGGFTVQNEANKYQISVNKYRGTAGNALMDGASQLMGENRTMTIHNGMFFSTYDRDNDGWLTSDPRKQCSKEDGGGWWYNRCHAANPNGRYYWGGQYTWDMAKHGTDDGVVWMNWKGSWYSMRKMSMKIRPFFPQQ
T3 sequence (P02679 27-437 isoform P02679-2 limits assumed): T1 sequence (P02679 27-437 isoform P02679-2 limits assumed)
Kind of assay: FIFTA of chloramine-T oxidized / EDTA-supplemented plasma. On the procedure: The absorption at 405 nm is immediately measured (base value) and exactly after 5 min, if the reaction is performed at room temperature (23° C.). If the reaction is performed at 37° C., the second value is measured after 2 min. A microtiterplate reader (Milenia, DPC, Los Angeles, USA) is used. The increase in absorption (ΔA) is determined and the results are standardized against a pooled plasma of known, preferably of 100% of norm, fibrinogen-activity (Table 1).
(§1) 25 μl P-Pool or P-Pool supplemented with 8.6 mM (3.2 g/l) EDTA were incubated with 25 μl 0-89 mM chloramine-T® in PBS for 60 min at RT. Then the FIATA and the FIFTA were performed. For the FIATA, 25 μl PBS were added and the absorbance at 405 nm was determined (base value). 50 μl 4.4 mM vancomycin in PBS were added and after 1 min (RT) the absorbance at 405 nm was determined again (Table 1). […] 100% control=P-Pool without oxidant.
(§2) 25 μl P-Pool was incubated with 25 μl PBS or with 25 μl 2 mM CT in PBS. After 60 min RT, 25 μl 0-172 mM EDTA in PBS was added. After 5 min RT the FIATA and the FIFTA were performed as indicated in 2.7.

Assay [3] relates to fibrinogen. Kind of assay: FIATA (vancomycin reactivity) of chloramine-T oxidized / EDTA-supplemented plasma. The following applies: EDTA at concentrations of 50-100 mM. On the procedure: To 25 μl plasma 50 μl PBS are added and the absorbance (405 nm) is determined (base value). Then 50 μl 4.4 mM vancomycin in PBS are added. The absorbance at 405 nm is determined after 2 min, if the reaction is performed at room temperature (23° C.). If the reaction is performed at 37° C., the second value is determined after 1 min. A microtiterplate reader (Milenia, DPC, Los Angeles, USA) is used. The increase in absorption (ΔA) is determined and the results are standardized against a pooled plasma of known, preferably of 100% of norm, fibrinogen-concentration, and against 0.9% NaCl (zero-value of turbidity) (Table 2).
as §1, §2

For `N=C(N)NCCC[C@H](N)C(=O)O` [arginine], at fibrin (477 mM arginine added at 12 min or 30 min reaction time point, RT), the “time to halfmaximal decrease of ΔA” value is recorded as 30 min. For the same molecule, the “maximal ΔA that remains refractory to clearing” value on fibrin (arginine incubation >100 min) is on record as “about 30%”. In assay [1] (16 mM arginine), the “increase of the turbidity increase” value is reported as “about 20%”. Besides, in assay [1] (arginine acts in the first 4 min (RT) of thrombin/fibrinogen interaction), the “final arginine conc. that completely inhibits turbidity increase” value is on record as at least 250 mM. In addition, the “time window in which arginine can inhibit turbidity increase” value in assay [1] (final arginine conc. ≧250 mM, RT (FIG. 16d)) was at most 3 min. The pIC50 in assay [1] (added at the 7 min reaction time point) was 1.03; in assay [1] (arginine acts since the begin of thrombin action), 1.20.
For the molecule hexadimethrinebromide [Polybrene®], in the assay with heparin (400 μg/ml Polybrene in FIFTA-reagent), the “plasmatic heparin concentration neutralized” value is given as “up to 20 IU/ml”. Further, the “PB needed for neutralization of 1 part of 100 IU/ml heparinized plasma” value with heparin (1 part PB, includes 400 μg/ml PB of FIFTA-reagent) came to 26 mg/mL. Further, the “PB concentration that completely antagonizes 100 IU/ml heparin” value in the assay with heparin (25 μl PB added to 50 μl plasma) was at least 50 mg/mL.
On to thrombin, for which the “time in which about 50% of plasmatic fibrinogen is converted” value at thrombin is “approximately 30 seconds”.
As to `O=C(O)CN(CCN(CC(=O)O)CC(=O)O)CC(=O)O` [EDTA], on fibrinogen [2] (EDTA at concentrations >5 mmol/l, 0 mM or 2 mM oxidized samples), the “decrease of FIFTA activity” value was “about 50%”. In addition, the FIFTA decrease entry on fibrinogen [2] (addition of 8.6 mM EDTA, independent of oxidant concentration) is given as “about 50%”. In the assay with fibrinogen [3], the “decrease of FIATA result” value is 10-20%.
